ChEMBL document CHEMBL1138055, “Tetraoxane antimalarials and their reaction with Fe(II)” (J Med Chem, 2006)

Legend:
Plasmodium falciparum [1] = system: Plasmodium falciparum
Description: (§1) Antimalarial activity against Plasmodium falciparum W2

Plasmodium falciparum [2] = system: Plasmodium falciparum; remark: listed apart in the source
Description: (§2) Antimalarial activity against Plasmodium falciparum D6

IGROV-1 = test: Antiproliferative activity against human IGROV1 cell line after 48 hrs; assay type: functional; details: Homo sapiens, IGROV-1, 48 h
UO-31 = test: Antiproliferative activity against human UO31 cell line after 48 hrs; assay type: functional; details: Homo sapiens, UO-31, 48 h; for CC50: read-out: LC50 (the source's name)
Plasmodium falciparum [3] = system: Plasmodium falciparum; remark: listed apart in the source
Description: (§3) Antimalarial activity against Plasmodium falciparum TM91C235

LOX IMVI = test: Antiproliferative activity against human LOX IMVI cell line after 48 hrs; assay type: functional
Plasmodium falciparum [4] = test: microbe, parasite or virus in culture; details: TM91C235
Description: as §3

Plasmodium falciparum [5] = test: microbe, parasite or virus in culture; details: W2
Description: as §1

Plasmodium falciparum [6] = test: microbe, parasite or virus in culture; details: D6
Description: as §2

[7] = read-out: LC50 (the source's name)

Row | SMILES | IC50 (Plasmodium falciparum [1]) [nM] | IC90 (Plasmodium falciparum [1]) [nM] | IC50 (Plasmodium falciparum [2]) [nM] | IC90 (Plasmodium falciparum [2]) [nM] | IC50 (Plasmodium falciparum [3]) [nM] | IC90 (Plasmodium falciparum [3]) [nM] | IC90 (Plasmodium falciparum [5]) [nM] | also measured
1 | CCCOC(=O)CC[C@@H](C)[C@H]1CC[C@H]2[C@@H]3[C@H](OC(C)=O)C[C@@H]4CC5(CC[C@]4(C)[C@H]3C[C@H](OC(C)=O)[C@]12C)OOC1(CCC(C(=O)OCCC)CC1)OO5 (stereo in doubt; 5a) | 9 | 17.4 | 6.7 | 9.4 | 8.8 | 18 | – | GI50 (IGROV-1): 1990 nM; TGI (IGROV-1): 6160 nM; CC50 (IGROV-1; [7]): > 100000 nM; GI50 (UO-31): 1150 nM; TGI (UO-31): 2440 nM; CC50 (UO-31): 5190 nM; GI50 (LOX IMVI): 1090 nM; TGI (LOX IMVI): 2740 nM; CC50 (LOX IMVI; [7]): 6910 nM
2 | CCCOC(=O)CC[C@@H](C)[C@H]1CC[C@H]2[C@@H]3[C@H](OC(C)=O)C[C@@H]4CC5(CC[C@]4(C)[C@H]3C[C@H](OC(C)=O)[C@]12C)OOC1(CCC(C(=O)OCCC)CC1)OO5 (stereo in doubt; 5b) | 41.4 | 83.5 | 30.3 | 47.4 | 42.2 | 75.8 | – | –
3 | CC(=O)O[C@H]1C[C@H]2[C@@H]([C@H](OC(C)=O)C[C@@H]3CC4(CC[C@@]32C)OOC2(CCC(C(=O)O)CC2)OO4)[C@@H]2CC[C@H]([C@H](C)CCC(=O)O)[C@@]12C (stereo in doubt; 6a) | 135 | 156 | 98.3 | 147 | 135 | 257 | – | GI50 (UO-31): 1740 nM; TGI (UO-31): 3650 nM; CC50 (UO-31): 7660 nM
4 | CC(=O)O[C@H]1C[C@H]2[C@@H]([C@H](OC(C)=O)C[C@@H]3CC4(CC[C@@]32C)OOC2(CCC(C(=O)O)CC2)OO4)[C@@H]2CC[C@H]([C@H](C)CCC(=O)O)[C@@]12C (stereo in doubt; 6b) | > 300 | – | > 300 | > 300 | > 300 | – | > 300 | IC90 (Plasmodium falciparum [4]): > 300 nM
5 | CC(=O)O[C@H]1C[C@H]2[C@@H]([C@H](OC(C)=O)C[C@@H]3CC4(CC[C@@]32C)OOC2(CCC(C(N)=O)CC2)OO4)[C@@H]2CC[C@H]([C@H](C)CCC(N)=O)[C@@]12C (stereo in doubt; 8) | 121 | 265 | 119 | 196 | 168 | 249 | – | –
6 | CCCNC(=O)CC[C@@H](C)[C@H]1CC[C@H]2[C@@H]3[C@H](OC(C)=O)C[C@@H]4CC5(CC[C@]4(C)[C@H]3C[C@H](OC(C)=O)[C@]12C)OOC1(CCC(C(=O)NCCC)CC1)OO5 (stereo in doubt; 9) | 18.1 | 39.6 | 10.5 | 17.8 | 14.9 | 63.2 | – | –
7 | CCCNC(=O)CC[C@@H](C)[C@H]1CC[C@H]2[C@@H]3[C@H](OC(C)=O)C[C@@H]4CC5(CC[C@]4(C)[C@H]3C[C@H](OC(C)=O)[C@]12C)OOC1(CCC(C(=O)NCCC)CC1)OO5 (stereo in doubt; 10) | 58.3 | – | 38.5 | 56 | 52.3 | 127 | 78 | –
8 | CC(=O)O[C@H]1C[C@H]2[C@@H]([C@H](OC(C)=O)C[C@@H]3CC4(CC[C@@]32C)OOC2(CCC(C(=O)NCCN(C)C)CC2)OO4)[C@@H]2CC[C@H]([C@H](C)CCC(=O)NCCN(C)C)[C@@]12C (stereo in doubt; 12) | – | – | – | – | – | – | 167 | IC50 (Plasmodium falciparum [4]): 145 nM; IC90 (Plasmodium falciparum [4]): 160 nM; IC50 (Plasmodium falciparum [6]): 128 nM; IC90 (Plasmodium falciparum [6]): 187 nM; IC50 (Plasmodium falciparum [5]): 132 nM
9 | CC(=O)O[C@H]1C[C@H]2[C@@H]([C@H](OC(C)=O)C[C@@H]3CC4(CC[C@@]32C)OOC2(CCC(C(=O)Nc3ccccc3)CC2)OO4)[C@@H]2CC[C@H]([C@H](C)CCC(=O)Nc3ccccc3)[C@@]12C (stereo in doubt; 14) | 52.9 | 74.2 | 29.6 | 44.5 | 42.8 | 86.6 | – | –
